# Reference: patent US10726554B2, “Information processing apparatus, information processing system, and information processing method” (Sony Corporation, priority 2015, dated 2020)
# Legend:
# Format in all cases: cell-based
# [1] = system: U2OS cells; assay: Change in motion speed by motor protein inhibitor (phase contrast imaging, average motion speed); conditions: imaging time 60 minutes
# Method: Images (moving image) of U2OS cells cultured at different medicine concentrations were captured with a phase contrast microscope. […] For the AMP-PNP, three types of cells respectively having medicine concentrations of 67, 200, and 670 micro M and a comparative cell to which nothing is administered were prepared. For the ATA, three types of cells respectively having medicine concentrations of 10, 30, and 100 micro M and a comparative cell to which nothing is administered were prepared. The magnification power of the microscope was 20×, the imaging interval was 5 frames per second, and the imaging time was 60 minutes. After motion vectors were calculated at intervals of approximately 1 micrometer, an average of the motion amount per unit time (motion speed) was calculated, to create a graph.
# FIG. 27 is a graph of a motion speed for the cells to which AMP-PNP is administered at different medicine concentrations. FIG. 28 is a graph of a motion speed for the cells to which ATA is administered at different medicine concentrations.
# [2] = system: U2OS cells; assay: Change in motion speed by metabolic inhibition with mitochondrial uncoupler (phase contrast imaging, relative motion area); conditions: U2OS cells, 0.5, 5 and 50 micro M, imaging time 20 minutes, versus comparative cell (FIG. 26)
# Method: Images (moving image) of U2OS cells cultured at different medicine concentrations were captured with a phase contrast microscope. A medicine was CCCP, which is a mitochondrial uncoupler used as a metabolic inhibitor. Three types of cells respectively having medicine concentrations of 0.5, 5, and 50 micro M and a comparative cell to which nothing is administered were prepared. The magnification power of the microscope was 20×, the imaging interval was 5 frames per second, and the imaging time was 20 minutes. After motion vectors were calculated at intervals of approximately 1 micrometer, a relative motion area was calculated to create a graph.
# FIG. 26 is a graph of a relative motion area for the cells cultured at different medicine concentrations.
# [3] = system: U2OS cells; assay: Change in motion speed by microtubule disruption (phase contrast imaging, motion vector analysis); conditions: 2 micro M, imaging time 20 minutes; for motion area in color map of motion speed: versus comparative cell (FIGS. 20, 22, 24); for relative motion area (proportion of the motion area to the cell area): versus comparative cell to which nothing is administered (FIG. 25)
# Method: Images (moving image) of U2OS cells cultured on different conditions were captured with a phase contrast microscope. Three types of cells, i.e., a cell to which Paclitaxel of 2 micro M is administered, a cell to which Nocodazole of 2 micro M is administered, and a comparative cell to which nothing is administered, were prepared. The Paclitaxel stabilizes a microtubule. The Nocodazole destabilizes a microtubule. The magnification power of the microscope was 20×, the imaging interval was 5 frames per second, and the imaging time was 20 minutes. After motion vectors were calculated at intervals of approximately 1 micrometer, a spatiotemporal average of the motion amount per unit time (motion speed) of each coordinate was calculated, to create a color map. Further, on the basis of the proportion of the cell within the captured image, a cell area and a motion area indicating a motion speed larger than a predetermined motion speed were calculated, and a relative motion area indicating a proportion of the motion area to the cell area was specified, to create a graph.
# FIG. 19 is a phase-contrast image of a comparative cell to which nothing is administered, and FIG. 20 is a color map of the comparative cell. FIG. 21 is a phase-contrast image of a cell to which Paclitaxel is administered, and FIG. 22 is a color map of the cell. FIG. 23 is a phase-contrast image of a cell to which Nocodazole is administered, and FIG. 24 is a color map of the cell. FIG. 25 is a graph of a relative motion area for the cells cultured on those three conditions.
Compound,motion area in color map of motion speed [3],relative motion area (proportion of the motion area to the cell area) [3],other results
Nc1ncnc2c1ncn2[C@@H]1O[C@H](COP(=O)(O)OP(=O)(O)NP(=O)(O)O)[C@@H](O)[C@H]1O [AMP-PNP],–,–,"motion speed (average of the motion amount per unit time) ([1]; U2OS cells, 67, 200 and 670 micro M, versus comparative cell (FIG. 27)): the value of the motion speed decreases in accordance with an increase of the medicine concentration"
N#CC(C#N)=NNc1cccc(Cl)c1 [CCCP],–,–,relative motion area [2]: the value of the relative motion area decreases in accordance with an increase of the concentration of CCCP
O=C(O)C1=CC(=C(c2ccc(O)c(C(=O)O)c2)c2ccc(O)c(C(=O)O)c2)C=CC1=O [ATA],–,–,"motion speed (average of the motion amount per unit time) ([1]; U2OS cells, 10, 30 and 100 micro M, versus comparative cell (FIG. 28)): the value of the motion speed decreases in accordance with an increase of the medicine concentration"
COC(=O)Nc1nc2ccc(C(=O)c3cccs3)cc2[nH]1 [Nocodazole],the motion area obviously shrinks in the color map,the value of the relative motion area decreases,–
CC(=O)O[C@H]1C(=O)[C@@]2(C)[C@H]([C@H](OC(=O)c3ccccc3)[C@]3(O)C[C@H](OC(=O)[C@H](O)[C@@H](NC(=O)c4ccccc4)c4ccccc4)C(C)=C1C3(C)C)[C@]1(OC(C)=O)CO[C@@H]1C[C@@H]2O [Paclitaxel],do not have difference in color map,do not have difference in color map and in value of the relative motion area,–
